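Results reflect a 48-hour exposure of cells in 96-well plates to compound at five concentrations. Here, GI50 denotes the concentration required for 50% inhibition of growth. The concentration for full growth arrest is given as TGI.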
The compounds below were run on UACC-62 melanoma (assay: NCI-60 cell line screen, 48 h).
O=[S@@]1Nc2ccc(Br)cc2S1 was tested, and the TGI was over 100 µM. For CC(=O)C(CN(C(C)C)C(C)C)C(c1ccccc1)c1c(O)c2ccccc2oc1=O (stereo not given), the TGI was over 100 µM. In the case of COc1ccc2c(c1)C1(C=N2)CCN(C(C)=O)CC1, the TGI is reported as over 100 µM. NC(CCc1nc(-c2ccc(Cl)cc2)cs1)C(=O)O (stereo not given) showed a TGI of over 100 µM. O=C1NC2(CCCCC2)C2CCCCC(O)C12 (stereo not given) gave a TGI of over 100 µM. COc1ccc(-n2/c(=N/C(=S)N(C)C)ss/c2=N\C(=S)N(C)C)cc1 was tested, and the TGI was 24.8 µM. Oc1ccc(Cl)cc1-c1cc(-c2ccccc2Cl)[nH]n1 gave a GI50 of 5.29 µM and a TGI of over 100 µM. For CCOC(=O)C(Sc1ccccc1)c1c(OC)cc(=O)oc1/C=[N+](/[O-])c1ccc(N(C)C)cc1 (stereo not given), the TGI was 51.8 µM. With COc1ccc2nc3cc(Cl)ccc3c(Sc3ccccc3[N+](=O)[O-])c2c1 the TGI was over 100 µM. For O=C(O)C(Cc1ccccc1)N1C(=O)N/C(=C\c2ccc(F)cc2)C1=O (stereo not given), the TGI was over 100 µM. With C/C(CCn1[nH]c(=O)ccc1=O)=N\O the TGI was over 100 µM. In the case of COc1ccccc1NC(=O)CC(=O)n1nc(C)c(N=Nc2ccccc2C(=O)O)c1C, the TGI is reported as over 100 µM. For CC(=O)N1[C@H](C(=O)O)CS[C@H]1c1ccncc1, the TGI was over 100 µM. In the case of CC1(C)COC(c2ccc(C(F)(F)F)cc2C(O)c2ccc3ccccc3c2)=N1 (stereo not given), the GI50 is reported as over 100 µM and the TGI is reported as over 100 µM. COc1ccc(NC(=O)c2cc(OC)cc(OC)c2)cc1 gave a TGI of over 100 µM. CC1(C)OC(=O)C(=Cc2ccc(O)cc2)C(=O)O1 was tested, and the TGI was over 100 µM. COc1ccc(C2=CSc3cc(Cl)c(C)cc3S(=O)(=O)N2C(C)=O)cc1 was tested, and the GI50 was 13.1 µM and the TGI was 48 µM. In the case of COc1ccc(/C=C\c2cc(OC)c3c(c2)OCO3)c(O)c1O, the TGI is reported as 14 µM. In the case of CC(=O)OC1COC(n2c(=S)n(-c3ccc(C)cc3)c(=O)c3ccccc32)C(OC(C)=O)C1OC(C)=O (stereo not given), the TGI is reported as over 100 µM. COc1cccc(NC(=O)CC(=O)n2nc(C)c(N=Nc3ccccc3)c2C)c1 was tested, and the TGI was over 100 µM. Work on CC[C@@]12CCCN3CC[C@]4(c5cccc(OC)c5N(C(C)=O)[C@@H]4CC1)[C@H]32 yielded a TGI of over 100 µM. CC(=O)[O][Hg][c]1c(N)c(C)cc(C)c1F gave a GI50 of 1.5 µM and a TGI of 3.2 µM. For CCNC1C2(CCCCC2)NC(=O)C12CCCCC2 (stereo not given), the TGI was over 100 µM. O=C1C2=C(SCCS2)C(=O)c2ccccc21 gave a TGI of 3.04 µM. c1cc2c(cc1NC1=NCCO1)CCC2 was tested, and the TGI was over 10 µM.

What follows are compounds tested on HS 578T breast (assay: NCI-60 cell line screen, 48 h).
Compound NC(CSC(c1ccccc1)(c1ccccc1)c1ccc2c(c1)OCO2)C(=O)O (stereo not given) has a GI50 of 0.392 µM and a TGI of 24.6 µM. In the case of O=C(NCCNc1nccc(-c2c(-c3cccc(O)c3)nc3sccn23)n1)c1ccccc1O, the GI50 is reported as 3.15 µM and the TGI is reported as 16 µM. Work on Oc1ccc(Cl)cc1-c1cc(-c2ccccc2Cl)[nH]n1 yielded a GI50 of 7.85 µM and a TGI of over 100 µM. For CNC(=O)c1cc(Oc2ccc3nc(NC(=O)Nc4ccc(Cl)c(C(F)(F)F)c4)sc3c2)ccn1, the GI50 was 1.53 µM and the TGI was 6.27 µM. For COc1ccc(C2=CSc3cc(Cl)c(C)cc3S(=O)(=O)N2C(C)=O)cc1, the GI50 was 55.2 µM and the TGI was over 100 µM. CC[C@@]12CCCN3CC[C@]4(c5cccc(OC)c5N(C(C)=O)[C@@H]4CC1)[C@H]32 showed a TGI of over 100 µM. Work on CC(=O)[O][Hg][c]1c(N)c(C)cc(C)c1F yielded a GI50 of 1.6 µM and a TGI of 6.85 µM. c1cc2c(cc1NC1=NCCO1)CCC2 gave a TGI of over 10 µM.

The compounds below were run on K-562 leukemia (assay: NCI-60 cell line screen, 48 h).
For NC(CSC(c1ccccc1)(c1ccccc1)c1ccc2c(c1)OCO2)C(=O)O (stereo not given), the GI50 was 0.406 µM and the TGI was over 100 µM. C=CCc1cc(OC)c2c(c1)C(O)CC(c1ccc(OC)c(OC)c1)O2 (stereo not given) showed a TGI of over 100 µM. O=C(NCCNc1nccc(-c2c(-c3cccc(O)c3)nc3sccn23)n1)c1ccccc1O was tested, and the GI50 was 4.11 µM and the TGI was over 100 µM. CC(C)=CCCc1c(C)ccc2c1C(=O)C(=O)C(C(C)C)=C2 was tested, and the TGI was 8.08 µM. For NS(=O)(=O)c1ccccc1C(=O)N/N=C(\c1nc2ccc([N+](=O)[O-])cc2[nH]c1=O)C(O)c1ccc([N+](=O)[O-])cc1 (stereo not given), the TGI was over 100 µM. N#CC(C#N)=c1ccc(=C2NCC3CCCN23)cc1 (stereo not given) was tested, and the TGI was over 100 µM. In the case of CCOC(=O)COc1cccc2c1C(=O)CCO2, the TGI is reported as over 100 µM. Work on CSc1ccc(/C=C2\CN(C)C/C(=C\c3ccc(SC)cc3)C2=O)cc1 yielded a TGI of over 100 µM. Work on Nc1ccc(C(=O)N/C(=C\c2ccc3c(c2)OCO3)c2nc3[nH]c(=S)[nH]c(=O)c3[nH]2)cc1 yielded a TGI of over 100 µM. COC(=O)[C@@]12C3=NO[C@]1(C(=O)OC)C(O[Si](C)(C)C(C)(C)C)[C@H]1OC(C)(C)O[C@H]1[C@@H]2C(OCc1ccccc1)CC3 (stereo not given in full) gave a TGI of over 100 µM. With O=C(N/C(=C\c1cc(Cl)ccc1Cl)c1nc2[nH]c(=S)[nH]c(=O)c2[nH]1)c1ccccc1 the TGI was over 62.6 µM. Work on CN(CC(=O)O)S(=O)(=O)c1ccc2ccccc2c1 yielded a TGI of over 100 µM. CCN(CC)CC(C(=O)Nc1c(C)cccc1C)/C(C)=N\NC(=O)C[N+](C)(C)C (stereo not given) was tested, and the TGI was over 100 µM. CC1=C(C(=O)Nc2ccccc2C)C(c2ccco2)C(C(=O)Nc2ccccc2C)=C(C)N1C showed a TGI of over 100 µM. Work on CC(=O)OC(C)C(=O)C1c2cccc(O)c2C(=O)c2c(O)cc(C)cc21 (stereo not given) yielded a TGI of 9.03 µM. With O=[S@@]1Nc2ccc(Br)cc2S1 the TGI was over 100 µM. CC(=O)C(CN(C(C)C)C(C)C)C(c1ccccc1)c1c(O)c2ccccc2oc1=O (stereo not given) was tested, and the TGI was over 100 µM. Compound COc1ccc2c(c1)C1(C=N2)CCN(C(C)=O)CC1 has a TGI of over 100 µM. In the case of O=C1NC2(CCCCC2)C2CCCCC(O)C12 (stereo not given), the TGI is reported as over 100 µM. COc1ccc(-n2/c(=N/C(=S)N(C)C)ss/c2=N\C(=S)N(C)C)cc1 was tested, and the TGI was over 100 µM. CCOC(=O)C1=C(C)CC2C(=O)OC(=O)C2C1(C)C (stereo not given) was tested, and the TGI was over 100 µM. With Oc1ccc(Cl)cc1-c1cc(-c2ccccc2Cl)[nH]n1 the GI50 was 4.59 µM and the TGI was over 100 µM. With CCOC(=O)C(Sc1ccccc1)c1c(OC)cc(=O)oc1/C=[N+](/[O-])c1ccc(N(C)C)cc1 (stereo not given) the TGI was 23.8 µM. COc1ccc2nc3cc(Cl)ccc3c(Sc3ccccc3[N+](=O)[O-])c2c1 gave a TGI of over 100 µM. In the case of O=C(O)C(Cc1ccccc1)N1C(=O)N/C(=C\c2ccc(F)cc2)C1=O (stereo not given), the TGI is reported as over 100 µM. Compound C/C(CCn1[nH]c(=O)ccc1=O)=N\O has a TGI of over 100 µM. For COc1ccccc1NC(=O)CC(=O)n1nc(C)c(N=Nc2ccccc2C(=O)O)c1C, the TGI was over 100 µM. CC(=O)N1[C@H](C(=O)O)CS[C@H]1c1ccncc1 was tested, and the TGI was over 100 µM. Compound CC1(C)COC(c2ccc(C(F)(F)F)cc2C(O)c2ccc3ccccc3c2)=N1 (stereo not given) has a GI50 of over 100 µM and a TGI of over 100 µM. COc1ccc(NC(=O)c2cc(OC)cc(OC)c2)cc1 showed a TGI of over 100 µM. CC1(C)OC(=O)C(=Cc2ccc(O)cc2)C(=O)O1 was tested, and the TGI was over 100 µM. COc1ccc(C2=CSc3cc(Cl)c(C)cc3S(=O)(=O)N2C(C)=O)cc1 showed a GI50 of 27.8 µM and a TGI of over 100 µM. In the case of COc1ccc(/C=C\c2cc(OC)c3c(c2)OCO3)c(O)c1O, the TGI is reported as 27 µM. In the case of CC(=O)[O][Hg][c]1c(N)c(C)cc(C)c1F, the GI50 is reported as 0.749 µM and the TGI is reported as 4.03 µM. Work on O=C(O)CCSC(=O)Nc1cccc(F)c1 yielded a TGI of over 100 µM. In the case of CCNC1C2(CCCCC2)NC(=O)C12CCCCC2 (stereo not given), the TGI is reported as over 100 µM. Work on O=C1C2=C(SCCS2)C(=O)c2ccccc21 yielded a TGI of 5.14 µM. In the case of c1cc2c(cc1NC1=NCCO1)CCC2, the TGI is reported as over 10 µM.

These compounds were tested on HCC-2998 colon (assay: NCI-60 cell line screen, 48 h).
For NC(CSC(c1ccccc1)(c1ccccc1)c1ccc2c(c1)OCO2)C(=O)O (stereo not given), the GI50 was 0.35 µM and the TGI was 3.49 µM. C=CCc1cc(OC)c2c(c1)C(O)CC(c1ccc(OC)c(OC)c1)O2 (stereo not given) gave a TGI of over 100 µM. For O=C(NCCNc1nccc(-c2c(-c3cccc(O)c3)nc3sccn23)n1)c1ccccc1O, the GI50 was 5.67 µM and the TGI was 22.5 µM. With CC(C)=CCCc1c(C)ccc2c1C(=O)C(=O)C(C(C)C)=C2 the TGI was over 22 µM. For NS(=O)(=O)c1ccccc1C(=O)N/N=C(\c1nc2ccc([N+](=O)[O-])cc2[nH]c1=O)C(O)c1ccc([N+](=O)[O-])cc1 (stereo not given), the TGI was over 100 µM. N#CC(C#N)=c1ccc(=C2NCC3CCCN23)cc1 (stereo not given) gave a TGI of over 100 µM. CCOC(=O)COc1cccc2c1C(=O)CCO2 was tested, and the TGI was over 100 µM. For CSc1ccc(/C=C2\CN(C)C/C(=C\c3ccc(SC)cc3)C2=O)cc1, the TGI was over 100 µM. With Nc1ccc(C(=O)N/C(=C\c2ccc3c(c2)OCO3)c2nc3[nH]c(=S)[nH]c(=O)c3[nH]2)cc1 the TGI was over 100 µM. With COC(=O)[C@@]12C3=NO[C@]1(C(=O)OC)C(O[Si](C)(C)C(C)(C)C)[C@H]1OC(C)(C)O[C@H]1[C@@H]2C(OCc1ccccc1)CC3 (stereo not given in full) the TGI was over 100 µM. O=C(N/C(=C\c1cc(Cl)ccc1Cl)c1nc2[nH]c(=S)[nH]c(=O)c2[nH]1)c1ccccc1 showed a TGI of 30.7 µM. Work on CN(CC(=O)O)S(=O)(=O)c1ccc2ccccc2c1 yielded a TGI of over 100 µM. For CCN(CC)CC(C(=O)Nc1c(C)cccc1C)/C(C)=N\NC(=O)C[N+](C)(C)C (stereo not given), the TGI was over 100 µM. Work on CC1=C(C(=O)Nc2ccccc2C)C(c2ccco2)C(C(=O)Nc2ccccc2C)=C(C)N1C yielded a TGI of over 100 µM. In the case of CC(=O)OC(C)C(=O)C1c2cccc(O)c2C(=O)c2c(O)cc(C)cc21 (stereo not given), the TGI is reported as 1.69 µM. With COc1ccc2c(c1)C1(C=N2)CCN(C(C)=O)CC1 the TGI was over 100 µM.
